For orientation: GI50 means the concentration at which growth is held to half of that of the control.

Each structure is given as a SMILES string. Read-outs that look alike come from different tables or passages of the source.

Results on 5 compounds are retold here after PMC10893631, “Receptor-based pharmacophore modeling, molecular docking, synthesis and biological evaluation of novel VEGFR-2, FGFR-1, and BRAF multi-kinase inhibitors” (BMC Chemistry, 2024).

For one assay, the target named is T1, VEGFR-2 (Homo sapiens, UniProt P35968).
T1 construct: purchased BPS Biosciences 40325
T1 sequence (P35968 20-1356): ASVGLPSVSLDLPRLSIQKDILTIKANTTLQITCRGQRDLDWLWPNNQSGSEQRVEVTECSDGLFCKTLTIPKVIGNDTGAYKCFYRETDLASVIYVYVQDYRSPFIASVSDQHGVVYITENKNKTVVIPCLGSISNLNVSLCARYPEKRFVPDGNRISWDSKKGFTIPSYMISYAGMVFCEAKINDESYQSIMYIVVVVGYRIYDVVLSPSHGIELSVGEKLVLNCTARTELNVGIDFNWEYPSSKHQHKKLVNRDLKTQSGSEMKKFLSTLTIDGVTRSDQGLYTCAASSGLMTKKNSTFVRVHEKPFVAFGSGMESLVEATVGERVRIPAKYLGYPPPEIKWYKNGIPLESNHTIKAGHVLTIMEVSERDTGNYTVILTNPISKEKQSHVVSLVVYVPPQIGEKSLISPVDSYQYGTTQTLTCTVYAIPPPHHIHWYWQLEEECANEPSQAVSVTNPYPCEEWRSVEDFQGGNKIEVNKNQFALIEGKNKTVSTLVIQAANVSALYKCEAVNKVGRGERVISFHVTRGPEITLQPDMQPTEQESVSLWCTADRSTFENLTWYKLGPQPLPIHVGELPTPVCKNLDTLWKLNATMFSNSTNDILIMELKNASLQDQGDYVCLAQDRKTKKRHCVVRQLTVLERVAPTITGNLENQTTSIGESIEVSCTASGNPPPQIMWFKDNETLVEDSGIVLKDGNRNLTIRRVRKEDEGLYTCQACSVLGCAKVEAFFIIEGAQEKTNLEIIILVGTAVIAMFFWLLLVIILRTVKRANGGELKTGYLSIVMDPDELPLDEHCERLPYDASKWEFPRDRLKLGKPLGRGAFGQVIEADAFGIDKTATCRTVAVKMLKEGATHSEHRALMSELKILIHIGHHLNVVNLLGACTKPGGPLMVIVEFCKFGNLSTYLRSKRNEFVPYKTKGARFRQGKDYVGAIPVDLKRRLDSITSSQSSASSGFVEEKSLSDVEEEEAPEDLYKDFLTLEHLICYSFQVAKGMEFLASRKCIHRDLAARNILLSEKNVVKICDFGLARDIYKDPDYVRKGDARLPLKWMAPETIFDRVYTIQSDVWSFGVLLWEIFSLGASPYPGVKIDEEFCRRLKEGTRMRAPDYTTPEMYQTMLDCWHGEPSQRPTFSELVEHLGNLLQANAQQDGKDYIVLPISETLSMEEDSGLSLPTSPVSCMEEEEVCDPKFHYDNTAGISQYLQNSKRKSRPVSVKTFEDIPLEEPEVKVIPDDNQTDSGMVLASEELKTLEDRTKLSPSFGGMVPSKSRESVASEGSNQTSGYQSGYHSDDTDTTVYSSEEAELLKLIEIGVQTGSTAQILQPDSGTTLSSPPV
As to the kind of experiment: VEGFR-2 kinase assay kit (BPS), Kinase-Glo Max luminescence. The assay is classed as biochemical. Conditions: VEGFR-2, single dose 10 µM, duplicate, mean ± SD. A general note: In Kinase-Glo more light means more ATP remaining.

The test system of assay [1] is NCI panel of 60 tumor cell lines. Description: NCI SRB growth inhibition, whole panel mean (single dose 10 µM / five-dose). The assay is classed as cell-based, human. Conditions: Homo sapiens; for GI50: mean over NCI cancer cell lines, five-dose. A digest of the protocol: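 Test agents were dissolved in DMSO at 400-fold the top final concentration, diluted in medium with 50 µg/mL gentamicin, and tested at five concentrations.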

For the next assay, the system named is ACHN. Description: NCI SRB growth inhibition (single dose 10 µM / five-dose). The assay is classed as cell-based, human. Conditions: Homo sapiens; for inhibition at 10 µM: ACHN (Renal cancer), read-out: GI%; for GI50: ACHN, Renal cancer, five-dose. The method, then:
(§1) Screening of cytotoxic activity against a panel of sixty human tumor cell lines The selected compounds by NCI were evaluated for their anticancer activity in a two- stage process. […] Then, the output from the single dose screen is reported as a mean graph. […] Assay protocol. […] For a typical screening experiment, cells are inoculated into 96 well microtiter plates in 100 µL at plating densities ranging from 5000 to 40,000 cells/well depending on the doubling time of individual cell lines. […] After 24 h, two plates of each cell line are fixed in situ with TCA, to represent a measurement of the cell population for each cell line at the time of drug addition (Tz). The experimental drugs are solubilized in dimethyl sulfoxide at 400-fold the desired final maximum test concentration and stored frozen prior to use. At the time of drug addition, an aliquot of frozen concentrate is thawed and diluted to twice the desired final maximum test concentration with complete medium containing 50 µg/mL gentamicin. Additional four, 10-fold or ½ log serial dilutions are made to provide a total of five drug concentrations plus control. Aliquots of 100 mL of these different drug dilutions are added to the appropriate microtiter wells already containing […] of medium, resulting in the required final drug concentrations. […] For adherent cells, the assay is terminated by the addition of cold TCA. […] The supernatant is discarded, and the plates are washed five times with tap water and air dried. Sulforhodamine B (SRB) solution ([…]) at 0.4% (w/v) in 1% acetic acid is added to each well, and plates are incubated for 10 min at room temperature. After staining, unbound dye is removed by washing five times with 1% acetic acid and the plates are air dried. […] Using the seven absorbance measurements [time zero, (Tz), control growth, (C), and test growth in the presence of drug at the five concentration levels (Ti)], the percentage growth is calculated at each of the drug concentrations levels. Percentage growth inhibition is calculated as: [(Ti Tz)/(C–Tz)] x 100 for concentrations for which Ti>/=Tz and [(Ti-Tz)/Tz] x 100 for concentrations for which Ti < Tz. Three dose response parameters are calculated for each experimental agent. […] The drug concentration resulting in total growth inhibition (TGI) is calculated from Ti = Tz. […] Values are calculated for each of these three parameters if the level of activity is reached; however, if the effect is not reached or is exceeded, the value for that parameter is expressed as greater or less than the maximum or minimum concentration tested.

In another assay the test system is HCT-116. Described as above. Conditions: Homo sapiens, HCT-116; for inhibition at 10 µM: read-out: GI%. The assay is classed as cell-based, human. The method, then:
as §1

The test system of a further assay is HOP-92. The description is as above. The assay is classed as cell-based, human. The settings on record: Homo sapiens; for inhibition at 10 µM: HOP-92 (Non-small cell lung cancer), read-out: GI%; for GI50: HOP-92, Non-small cell lung cancer, five-dose. The method, then:
as §1

For the next assay, the system named is M14. Described as above. The assay is classed as cell-based, human. Conditions: Homo sapiens; for inhibition at 10 µM: M14 (Melanoma), read-out: GI%; for GI50: M14, Melanoma, five-dose. How it is done:
as §1

For a further assay, the system named is MOLT-4. The assay is described as above. The assay is classed as cell-based, human. The settings on record: Homo sapiens; for inhibition at 10 µM: MOLT-4 (Leukemia), read-out: GI%; for GI50: MOLT-4, Leukemia, five-dose. The method, then:
as §1

The subject of another assay is NCI-H226. The description is as above. The settings on record: Homo sapiens; for inhibition at 10 µM: NCI-H226 (Non-small cell lung cancer), read-out: GI%; for GI50: NCI-H226, Non-small cell lung cancer, five-dose. The assay is classed as cell-based, human. How it is done: as §1
The next assay relates to NCI-H322M. Described as above. The assay is classed as cell-based, human. Conditions: Homo sapiens; for inhibition at 10 µM: NCI-H322M (Non-small cell lung cancer), read-out: GI%; for GI50: NCI-H322M, Non-small cell lung cancer, five-dose. How it is done: as §1
For a further assay, the system named is OVCAR-4. The assay is described as above. The assay is classed as cell-based, human. The settings on record: Homo sapiens; for inhibition at 10 µM: OVCAR-4 (Ovarian cancer), read-out: GI%; for GI50: OVCAR-4, Ovarian cancer, five-dose. The method, then:
as §1

The next assay concerns SN12C. The assay is described as above. The assay is classed as cell-based, human. Conditions: Homo sapiens; for inhibition at 10 µM: SN12C (Renal cancer), read-out: GI%; for GI50: SN12C, Renal cancer, five-dose. How it is done:
as §1

A further assay relates to U251. The description is as above. The assay is classed as cell-based, human. Conditions: Homo sapiens, U-251; for inhibition at 10 µM: U251 (CNS cancer), read-out: GI%; for GI50: U251, CNS cancer, five-dose. The method, then: as §1
The next assay concerns UO-31. The assay is described as above. The assay is classed as cell-based, human. Conditions: Homo sapiens; for inhibition at 10 µM: UO-31 (Renal cancer), read-out: GI%; for GI50: UO-31, Renal cancer, five-dose. The method, then:
as §1

Setting [2] is: mean over NCI 60 cell lines, > 100% = lethal effect, read-out: mean growth inhibition % (GI%).
The mark [3] stands for this setting: mean over NCI panel of 60 tumor cell lines, read-out: Mean growth inhibition %.

`COc1ccc(-c2nc3cc(C(=O)NN=Cc4cc(OC)c(OC)c(OC)c4)ccc3[nH]2)cc1` [8n, 2-(4-Methoxyphenyl)-N'-(3,4,5-trimethoxybenzylidene)-1H-benzo[d]imidazole-5-carbohydrazide]: the inhibition at 10 µM against VEGFR-2 is 20.8 ± 1.78%; in assay [1] (setting [2]), 13.6%; in [1] (setting [3]), 13.6%; in the assay with ACHN, 9.17%; in the assay on HCT-116, 23.4%; in the assay on HOP-92, less than 5%. Further, the inhibition at 10 µM is 40.3% in the assay with M14; 22.1% in the assay on MOLT-4; 22.3% in the assay with NCI-H226; less than 5% with NCI-H322M; less than 5% with OVCAR-4; 9.66% in the assay with SN12C. Also, the inhibition at 10 µM stood at 15.3% with U251 and 21.8% in the assay on UO-31.
On to `O=C(NN=Cc1ccccc1O)c1ccc2[nH]c(-c3ccc(Cl)cc3)nc2c1` [8o, 2-(4-Chlorophenyl)-N'-(2-hydroxybenzylidene)-1H-benzo[d]imidazole-5-carbohydrazide], for which the inhibition at 10 µM against VEGFR-2 was 22.3 ± 1.95%; in [1] (setting [2]), more than 100%; in assay [1] (setting [3]) it was more than 100%; in the assay on ACHN, 94.2%; in the assay on HCT-116 it was 98.4%; with HOP-92, more than 100%. Besides, the inhibition at 10 µM in the assay with M14 is 90.9%; in the assay on MOLT-4 it was 60.8%; with NCI-H226, 88.6%; in the assay on NCI-H322M, 70.2%; in the assay with OVCAR-4 it was more than 100%; in the assay with SN12C, 59.4%. Moreover, the inhibition at 10 µM in the assay on U251 and in the assay on UO-31 was more than 100% in each case. The GI50 in assay [1] was 5.44 µM; in the assay with ACHN it was 810 nM; in the assay with HCT-116, 1080 nM; with HOP-92, more than 38800 nM; in the assay on M14 it was 1810 nM; in the assay on MOLT-4, 280 nM. Further, the GI50 in the assay with NCI-H226 was 4330 nM; in the assay on NCI-H322M it was 1380 nM; in the assay with OVCAR-4, 1250 nM; in the assay with SN12C it was 3410 nM; with U251, 830 nM; with UO-31, 310 nM.
As to `COc1cccc(C=NNC(=O)c2ccc3[nH]c(-c4ccc(Cl)cc4)nc3c2)c1` [8q, 2-(4-Chlorophenyl)-N'-(3-methoxybenzylidene)-1H-benzo[d]imidazole-5-carbohydrazide], the inhibition at 10 µM is 21.5 ± 1.54% against VEGFR-2; more than 100% in assay [1] (setting [2]); more than 100% in assay [1] (setting [3]); more than 100% in the assay on ACHN; more than 100% in the assay with HCT-116; more than 100% in the assay with HOP-92. For the same compound, the inhibition at 10 µM in the assay on M14 is more than 100%; in the assay on MOLT-4 it was 71.6%; in the assay with NCI-H226, more than 100%; with NCI-H322M, more than 100%; in the assay on OVCAR-4 it was more than 100%; in the assay on U251, more than 100%. Moreover, the inhibition at 10 µM in the assay with UO-31 worked out at 81.7%. Further, the GI50 in assay [1] was 5.4 µM; in the assay on ACHN, 4210 nM; in the assay with HCT-116, 3060 nM; with M14, 2150 nM; in the assay with MOLT-4, 5960 nM; in the assay with NCI-H226, 2570 nM. The GI50 was determined as 3570 nM in the assay with NCI-H322M; 3070 nM in the assay on OVCAR-4; 2220 nM in the assay with SN12C; 2030 nM in the assay on U251; 3460 nM in the assay on UO-31.
Turning to `COc1cccc(C=NNC(=O)c2ccc3[nH]c(-c4ccc(Cl)cc4)nc3c2)c1O` [8r, 2-(4-Chlorophenyl)-N'-(2-hydroxy-3-methoxybenzylidene)-1H-benzo[d]imidazole-5-carbohydrazide], the inhibition at 10 µM was 25.7 ± 1.87% on VEGFR-2; more than 100% in assay [1] (setting [2]); more than 100% in assay [1] (setting [3]); more than 100% with ACHN; more than 100% in the assay on HCT-116; more than 100% in the assay with HOP-92. Besides, the inhibition at 10 µM with M14, with MOLT-4, with NCI-H226, with NCI-H322M, in the assay on OVCAR-4 and in the assay with U251 was more than 100% throughout. The inhibition at 10 µM in the assay on UO-31 is more than 100%. For the same compound, the GI50 was 3.39 µM in assay [1]; 2920 nM in the assay on ACHN; 1190 nM in the assay with HCT-116; 1250 nM with HOP-92; 2070 nM with M14; 630 nM in the assay on MOLT-4. Moreover, the GI50 worked out at 1650 nM with NCI-H226; 1590 nM in the assay with NCI-H322M; 1410 nM in the assay on OVCAR-4; 1720 nM in the assay with SN12C; 1500 nM in the assay with U251; 2070 nM with UO-31.
On to `COc1ccc(C=NNC(=O)c2ccc3[nH]c(-c4ccc(Cl)cc4)nc3c2)cc1O` [8s, 2-(4-Chlorophenyl)-N'-(3-hydroxy-4-methoxybenzylidene)-1H-benzo[d]imidazole-5-carbohydrazide], for which the inhibition at 10 µM against VEGFR-2 is 26.7 ± 1.83%; in [1] (setting [2]), 49.5%; in [1] (setting [3]), 49.5%; with ACHN, less than 5%; in the assay on HCT-116 it was 69.5%; with HOP-92, less than 5%. For the same compound, the inhibition at 10 µM came to 42.1% with M14; 83.7% with MOLT-4; 37.6% in the assay with NCI-H226; 18.1% in the assay with NCI-H322M; 20.8% in the assay on OVCAR-4; 31.3% with SN12C. Moreover, the inhibition at 10 µM stood at 75.2% with U251 and 8.7% in the assay on UO-31.
